This is an account of results in patent US11168073B2, “3,3-difluoroallylamines or salts thereof and pharmaceutical compositions comprising the same” (YUHAN CORPORATION, priority 2018, dated 2021).

Structures are written as SMILES. Where a name gives a salt, the structure may show the parent alone. Read-outs that look alike come from different tables or passages of the source. A value given as a limit tells only on which side of the number the result lay.

Holding throughout (format): biochemical
One assay concerns the target T1, recombinant human VAP-1 (Homo sapiens, UniProt Q16853).
T1 construct: purchased R&D systems
T1 sequence (Q16853 1-763): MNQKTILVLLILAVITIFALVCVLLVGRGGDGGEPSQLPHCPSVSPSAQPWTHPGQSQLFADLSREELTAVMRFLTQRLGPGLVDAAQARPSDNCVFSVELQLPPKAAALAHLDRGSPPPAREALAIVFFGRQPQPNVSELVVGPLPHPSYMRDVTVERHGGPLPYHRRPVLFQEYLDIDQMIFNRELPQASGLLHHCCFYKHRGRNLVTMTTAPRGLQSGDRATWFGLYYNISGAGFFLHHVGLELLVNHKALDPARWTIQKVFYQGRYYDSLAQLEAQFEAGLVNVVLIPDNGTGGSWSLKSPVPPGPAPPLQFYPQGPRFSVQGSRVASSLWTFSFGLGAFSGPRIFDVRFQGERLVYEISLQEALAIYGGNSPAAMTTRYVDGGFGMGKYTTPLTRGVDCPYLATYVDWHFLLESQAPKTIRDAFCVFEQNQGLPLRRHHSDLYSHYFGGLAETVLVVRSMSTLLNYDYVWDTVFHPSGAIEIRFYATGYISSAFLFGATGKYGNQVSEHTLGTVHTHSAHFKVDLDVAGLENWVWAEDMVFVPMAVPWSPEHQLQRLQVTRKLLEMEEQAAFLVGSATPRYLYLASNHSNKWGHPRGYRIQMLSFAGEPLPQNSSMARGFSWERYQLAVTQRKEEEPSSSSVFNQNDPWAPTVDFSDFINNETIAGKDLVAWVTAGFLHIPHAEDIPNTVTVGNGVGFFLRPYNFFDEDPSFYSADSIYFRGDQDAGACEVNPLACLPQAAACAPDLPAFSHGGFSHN
The assay can be described thus: Activity evaluation on recombinant human VAP-1 (Amplex Red/HRP-coupled hydrogen peroxide assay, benzylamine substrate). The note with it: read-out: Inhibitory Activity (IC50, nM) human VAP-1. The method in brief: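 Hydrogen peroxide from benzylamine (1 mM) oxidation by human recombinant VAP-1 detected via HRP-coupled Amplex Red (200 uM) fluorescence, kinetic over 1–2 h. Enzyme and compound preincubated 30 min at 37 °C, pH 7.4 phosphate; 8-point dose response, signal-rate decrease versus DMSO control fitted to four-parameter logistic for IC50.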

Assay [1] addresses T2, recombinant human MAO-A (monoamine oxidase-A) (Homo sapiens, UniProt P21397).
T2 construct: purchased Sigma-Aldrich
T2 sequence (P21397 1-527): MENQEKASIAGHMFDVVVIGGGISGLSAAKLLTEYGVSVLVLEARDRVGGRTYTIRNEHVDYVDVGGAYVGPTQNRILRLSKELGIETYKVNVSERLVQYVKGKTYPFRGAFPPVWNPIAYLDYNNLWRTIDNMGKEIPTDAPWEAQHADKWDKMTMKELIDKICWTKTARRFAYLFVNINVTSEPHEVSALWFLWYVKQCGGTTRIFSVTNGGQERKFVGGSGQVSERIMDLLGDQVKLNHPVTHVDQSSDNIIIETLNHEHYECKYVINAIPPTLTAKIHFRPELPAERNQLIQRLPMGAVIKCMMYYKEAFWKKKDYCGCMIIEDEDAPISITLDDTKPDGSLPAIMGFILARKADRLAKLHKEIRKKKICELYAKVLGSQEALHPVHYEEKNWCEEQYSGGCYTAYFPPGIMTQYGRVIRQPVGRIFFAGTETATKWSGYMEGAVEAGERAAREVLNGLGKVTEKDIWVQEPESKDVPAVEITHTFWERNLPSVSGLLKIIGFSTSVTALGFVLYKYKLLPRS
The assay can be described thus: Activity evaluation on recombinant human MAO-A (Amplex Red/HRP-coupled assay, 0.5 mM tyramine substrate). The note with it: read-out: Inhibitory Activity (IC50, nM) MAO-A. Put shortly:
(§1)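 Using an HRP-coupled Amplex Red readout (544/590 nm, kinetic over 1–2 h), IC50 values were fitted by 4-parameter logistic model to percent decrease in signal rate against DMSO control. Compounds (1:3 dilutions, 8 points, <1% DMSO) sat 30 min at 37 °C with enzyme in pH 7.4 phosphate buffer before substrate, 200 uM Amplex Red and HRP were added.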

Assay [2] concerns the target T3, recombinant human MAO-B (monoamine oxidase-B) (Homo sapiens, UniProt P27338).
T3 construct: purchased Sigma-Aldrich
T3 sequence (P27338 1-520): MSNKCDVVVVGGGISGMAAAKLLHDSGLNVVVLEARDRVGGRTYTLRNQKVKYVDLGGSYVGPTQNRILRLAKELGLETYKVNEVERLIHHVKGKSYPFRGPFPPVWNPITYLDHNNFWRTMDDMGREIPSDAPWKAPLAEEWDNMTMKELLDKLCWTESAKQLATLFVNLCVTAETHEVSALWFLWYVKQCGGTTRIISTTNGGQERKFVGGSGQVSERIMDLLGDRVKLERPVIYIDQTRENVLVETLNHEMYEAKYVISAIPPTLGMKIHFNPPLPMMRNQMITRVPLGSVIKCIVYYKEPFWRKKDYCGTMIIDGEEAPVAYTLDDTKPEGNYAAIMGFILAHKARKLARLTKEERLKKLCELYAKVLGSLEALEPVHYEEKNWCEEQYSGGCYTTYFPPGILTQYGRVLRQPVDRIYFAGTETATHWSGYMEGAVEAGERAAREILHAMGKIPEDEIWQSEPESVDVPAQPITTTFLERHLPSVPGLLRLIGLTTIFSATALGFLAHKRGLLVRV
The assay can be described thus: Activity evaluation on recombinant human MAO-B (Amplex Red/HRP-coupled assay, 1 mM benzylamine substrate). The following applies: read-out: Inhibitory Activity (IC50, nM) MAO-B. Put shortly:
as §1

For assay [3], the target named is T4, recombinant human DAO (diamine oxidase) (Homo sapiens, UniProt P19801).
T4 construct: purchased R&D systems
T4 sequence (P19801 20-751): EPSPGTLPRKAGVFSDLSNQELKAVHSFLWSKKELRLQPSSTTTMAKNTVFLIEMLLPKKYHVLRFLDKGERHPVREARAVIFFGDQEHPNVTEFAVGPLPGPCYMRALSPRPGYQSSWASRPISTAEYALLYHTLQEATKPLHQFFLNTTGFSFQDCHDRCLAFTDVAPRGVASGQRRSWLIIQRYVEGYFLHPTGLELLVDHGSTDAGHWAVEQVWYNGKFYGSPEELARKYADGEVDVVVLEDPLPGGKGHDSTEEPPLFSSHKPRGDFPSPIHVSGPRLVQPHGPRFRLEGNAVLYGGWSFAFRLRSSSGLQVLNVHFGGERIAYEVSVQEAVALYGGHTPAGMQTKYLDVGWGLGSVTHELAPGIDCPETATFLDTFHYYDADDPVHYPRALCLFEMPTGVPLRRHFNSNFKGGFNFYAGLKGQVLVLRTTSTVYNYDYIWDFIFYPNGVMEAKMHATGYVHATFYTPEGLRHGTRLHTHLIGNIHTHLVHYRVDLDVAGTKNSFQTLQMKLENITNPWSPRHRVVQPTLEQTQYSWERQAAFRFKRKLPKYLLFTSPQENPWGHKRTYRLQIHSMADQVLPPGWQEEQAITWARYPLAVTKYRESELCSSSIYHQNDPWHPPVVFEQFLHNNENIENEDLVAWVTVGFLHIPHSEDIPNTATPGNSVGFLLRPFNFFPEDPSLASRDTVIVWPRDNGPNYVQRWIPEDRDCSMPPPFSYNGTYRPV
The assay can be described thus: Activity evaluation on recombinant human DAO (Amplex Red/HRP-coupled assay, 1 mM putrescine substrate). The note with it: read-out: Inhibitory Activity (IC50, nM) DAO. Put shortly: as §1

Setting [4] is: recombinant human VAP-1, 30 min preincubation at 37° C., 1 mM benzylamine.
Where [5] appears, read: recombinant human VAP-1, benzylamine substrate.

In general, IC50 refers to the concentration that gives 50% inhibition. As for `NCC(Cn1ncn(Cc2ccc(-c3cccc(-c4cc[nH]n4)c3)s2)c1=O)=C(F)F` [Example 110, 2-[2-(aminomethyl)-3,3-difluoro-allyl]-4-[[5-[3-(1H-pyrazol-3-yl)phenyl]-2-thienyl]methyl]-1,2,4-triazol-3-one Trifluoroacetate], the IC50 is 1.3 nM on recombinant human VAP-1 (setting [4]), over 10000 nM in assay [1] (0.5 mM tyramine), 8700 nM in assay [2] (1 mM benzylamine) and over 100000 nM in assay [3] (1 mM putrescine).

As to `Cc1cc(-n2cnn(CC(CN)=C(F)F)c2=O)cnc1-c1ccc2c(c1)CCC(=O)N2C` [Example 81, 6-[5-[1-[2-(aminomethyl)-3,3-difluoro-allyl]-5-oxo-1,2,4-triazol-4-yl]-3-methyl-2-pyridyl]-1-methyl-3,4-dihydroquinolin-2-one Trifluoroacetate], the IC50 on recombinant human VAP-1 (setting [4]) was 0.4 nM; in assay [1] (0.5 mM tyramine), over 100000 nM; in assay [2] (1 mM benzylamine), 3500 nM; in assay [3] (1 mM putrescine), 27 nM.

For the compound `NCC(Cn1ncn(Cc2cc(-c3cnn(C(F)F)c3)cs2)c1=O)=C(F)F` [Example 194, 2-[2-(aminomethyl)-3,3-difluoro-allyl]-4-[[4-[1-(difluoromethyl)pyrazol-4-yl]-2-thienyl]methyl]-1,2,4-triazol-3-one Trifluoroacetate], the IC50 was 2.9 nM on recombinant human VAP-1 (setting [5]), over 100000 nM in assay [1] (0.5 mM tyramine substrate), 9200 nM in assay [2] (1 mM benzylamine substrate) and 64000 nM in assay [3] (1 mM putrescine substrate).

As to `CN(C)c1ccc(-c2cc(F)c(Cn3cnn(CC(CN)=C(F)F)c3=O)s2)cn1` [Example 303, 2-(2-(aminomethyl)-3,3-difluoroallyl)-4-((5-(6-(dimethylamino)pyridin-3-yl)-3-fluorothiophen-2-yl)methyl)-2,4-dihydro-3H-1,2,4-triazol-3-one trifluoroacetate], the IC50 on recombinant human VAP-1 (setting [5]) is 0.8 nM; in assay [1] (0.5 mM tyramine substrate), over 100000 nM; in assay [2] (1 mM benzylamine substrate) it was over 100000 nM; in assay [3] (1 mM putrescine substrate), over 100000 nM.

As for `Cc1cc(-c2ccc(N(C)C)nc2)cnc1-n1cnn(CC(CN)=C(F)F)c1=O` [Example 71, 2-[2-(aminomethyl)-3,3-difluoro-allyl]-4-[5-[6-(dimethylamino)-3-pyridyl]-3-methyl-2-pyridyl]-1,2,4-triazol-3-one Trifluoroacetate], the concentration for half-maximal inhibition (IC50) on recombinant human VAP-1 (setting [4]) was 0.8 nM; in assay [1] (0.5 mM tyramine) it was over 100000 nM; in assay [2] (1 mM benzylamine), over 100000 nM; in assay [3] (1 mM putrescine), over 100000 nM.

Consider `NCC(Cn1ncn(-c2ccc(-c3ccc(N4CCNCC4)cc3)nc2)c1=O)=C(F)F` [Example 39, 2-[2-(aminomethyl)-3,3-difluoro-allyl]-4-[6-(4-piperazin-1-ylphenyl)-3-pyridyl]-1,2,4-triazol-3-one Ditrifluoroacetate], for which the IC50 is 1.2 nM at recombinant human VAP-1 (setting [4]), over 100000 nM in assay [1] (0.5 mM tyramine), 46000 nM in assay [2] (1 mM benzylamine) and 310 nM in assay [3] (1 mM putrescine).

With `Cc1c(-c2ccc(C(F)(F)F)nc2)cccc1-n1cnn(CC(CN)=C(F)F)c1=O` [Example 255, 2-[2-(aminomethyl)-3,3-difluoro-allyl]-4-[2-methyl-3-[6-(trifluoromethyl)-3-pyridyl]phenyl]-1,2,4-triazol-3-one Trifluoroacetate], the IC50 was 2.3 nM on recombinant human VAP-1 (setting [5]), over 100000 nM in assay [1] (0.5 mM tyramine substrate), over 100000 nM in assay [2] (1 mM benzylamine substrate) and 35000 nM in assay [3] (1 mM putrescine substrate).

For `Cc1cc(-c2ccc3nonc3c2)cnc1-n1cnn(CC(CN)=C(F)F)c1=O` [Example 227, 2-[2-(aminomethyl)-3,3-difluoro-allyl]-4-[5-(2,1,3-benzoxadiazol-5-yl)-3-methyl-2-pyridyl]-1,2,4-triazol-3-one Trifluoroacetate], the 50% inhibitory concentration (IC50) at recombinant human VAP-1 (setting [5]) is 0.7 nM; in assay [1] (0.5 mM tyramine substrate) it was over 100000 nM; in assay [2] (1 mM benzylamine substrate) it was 340 nM; in assay [3] (1 mM putrescine substrate), 4800 nM.

In the case of `NCC(Cn1ncn(-c2ccnc(-c3ccc4c(c3)OCO4)c2)c1=O)=C(F)F` [Example 64, 2-[2-(aminomethyl)-3,3-difluoro-allyl]-4-[2-(1,3-benzodioxol-5-yl)-4-pyridyl]-1,2,4-triazol-3-one Trifluoroacetate], the IC50 on recombinant human VAP-1 (setting [4]) is 0.4 nM; in assay [1] (0.5 mM tyramine), over 100000 nM; in assay [2] (1 mM benzylamine) it was 480 nM; in assay [3] (1 mM putrescine), 270 nM.

Consider `CS(=O)(=O)c1ccc(-c2ccc3sc(Cn4cnn(CC(CN)=C(F)F)c4=O)cc3c2)cc1` [Example 205, 2-[2-(aminomethyl)-3,3-difluoro-allyl]-4-[[5-(4-methylsulfonylphenyl)benzothiophen-2-yl]methyl]-1,2,4-triazol-3-one Trifluoroacetate], for which the IC50 is 0.8 nM at recombinant human VAP-1 (setting [5]), over 100000 nM in assay [1] (0.5 mM tyramine substrate), over 100000 nM in assay [2] (1 mM benzylamine substrate) and 7670 nM in assay [3] (1 mM putrescine substrate).

As to `CN1C(=O)CCc2cc(-c3cnc(-n4cnn(CC(CN)=C(F)F)c4=O)cn3)ccc21` [Example 94, 6-[5-[1-[2-(aminomethyl)-3,3-difluoro-allyl]-5-oxo-1,2,4-triazol-4-yl]pyrazin-2-yl]-1-methyl-3,4-dihydro-1H-quinolin-2-one Trifluoroacetate], the IC50 on recombinant human VAP-1 (setting [4]) is 0.2 nM; in assay [1] (0.5 mM tyramine) it was over 100000 nM; in assay [2] (1 mM benzylamine), 860 nM; in assay [3] (1 mM putrescine), 4 nM.
